According to patent US20160279042A1, “Dental Anti-Hypersensitivity Composition and Method” (The Research Foundation for the State University of New York, priority 1999, published 2016):

Assays:
[1] = Hydraulic conductance of dentine discs (Greenhill and Pashley device), simulation of dentinal tubule plugging; settings: for Hydraulic conductance, effect in words: summary of Table 1
Description: A device developed by Greenhill and Pashley (J. Dental Research, 60:686-698, 1981) that enables simulation of dentinal tubule plugging in vivo was used to assess the effectiveness of the invention. Dentine discs that varied in thickness from 0.6 to 0.8 mm were cut with a Buhler Isomet saw from extracted caries-free molar teeth. They were then etched with 6% citric acid for two minutes to remove the smear layer and stored in 70% ethanol until used. A disc was mounted in the chamber of the apparatus with occlusal side facing upwards. The occlusal side is determined by passing light through a plastic grid beneath the section and observing the section with a dissecting microscope. The tubules appear further apart with the occlusal side up because of the lower tubular density of the dentine occlusally (Walton et al., J. Dental Research 55:639-642, 1976). Hydraulic conductance of fluid through the discs was determined as described by Greenhill and Pashley, supra.
Fluid containing levels of ions present in serum (Merck Manual, 1972) was used to perfuse the disc. Their concentrations in mM were as follows: Na-140.5, K-4.31, Ca-2.5, Mg-1.0, P-1.3. The pH of this solution is raised to 7.0 with sodium hydroxide. The solution was filtered through a […] (Millipore Corp., Marlborough, Mass. 01752) prior to use to remove any bacteria present. This solution is called artificial ionic dentinal fluid (AIDF). Hydrostatic pressure was created by a fluid reservoir leading via a glass capillary tube into the pulpal side of the chamber at a level 30 cm above that of the surface of the horizontally positioned disc. The distance traveled by an air bubble positioned in the AIDF in the capillary tubing between this pressure head and the pulpal side of the disc in a fixed period of time was converted to hydraulic conductance values in ml cm^−1 min^−1 cm H20^−1.
First, […] of AIDF was applied to the upward facing occlusal side of the section and AIDF was allowed to flow through the disc from the pulpal side for a period of five minutes. The distance that the air bubble moved inside the capillary on the pulpal side of the chamber was measured so that the rate of fluid movement through the disc could be calculated and converted to hydraulic conductance values. This procedure was repeated two more times or until a uniform flow rate was achieved on three consecutive runs. […] Next, the mixture was removed with a pipette, washed three times with 400 μl of deionized water and replaced with AIDF. The AIDF was allowed to flow through the dentine slice and hydraulic conductance readings were made at selected times up to 90 minutes.

[2] = Titration of artificial dentinal fluid, aggregation measured by absorbance; format: physicochemical; settings: pH of 8.5 and above
Description: In order to determine the conditions that promote intrinsic plug formation, we performed the following experiments. We prepared a solution comprised of the ions present in dentinal fluid (which acted as artificial dentinal fluid) and progressively added (titrated) various solutions thereto to determine the conditions and substances conducive to the formation of aggregates (i.e., dentinal plugs). Aggregation was determined by means of measurement of the absorbance with a spectrophotometer.

| Structure (SMILES) | Percent Reduction in Hydraulic Conductance ([1]; 0 minutes after exposure) [%] | Percent Reduction in Hydraulic Conductance ([1]; 15 minutes after exposure) [%] | Percent Reduction in Hydraulic Conductance ([1]; 30 minutes after exposure) [%] | Percent Reduction in Hydraulic Conductance ([1]; 45 minutes after exposure) [%] | Percent Reduction in Hydraulic Conductance ([1]; 60 minutes after exposure) [%] | Percent Reduction in Hydraulic Conductance ([1]; 75 minutes after exposure) [%] | Percent Reduction in Hydraulic Conductance ([1]; 90 minutes after exposure) [%] | Hydraulic conductance, effect in words [1] | Aggregation (deposit formation) of dentinal fluid constituents [2] |
| --- | --- | --- | --- | --- | --- | --- | --- | --- | --- |
| N=C(N)NCCC[C@H](N)C(=O)O.O=C(O)O [arginine bicarbonate] | 0 | 11.7 | 15.6 | 14.4 | 14.5 | 16.1 | 16.1 | much smaller effects | aggregation of dentinal fluid constituents occurred |
| O=C([O-])[O-].[Ca+2] [calcium carbonate] | 0 | −18.5 | −12.3 | −5.5 | −4.1 | 5.5 | 5.5 | much smaller effects | not sufficient to produce deposit formation |
| O=C([O-])O.[Na+] [sodium bicarbonate] | 0 | −10.6 | −1.0 | 7.2 | 11.5 | 15.9 | 19.7 |  | nor could one induce deposition |
| [Na+].[OH-] [sodium hydroxide] |  |  |  |  |  |  |  |  | nor could one induce deposition |
